Experimental data published in the NIST ThermoML archive (doi:10.1016/j.jct.2006.03.007).

Experiment: molar heat capacity at constant pressure
Settings: 101.33 kPa, Crystal

O=C(O)c1cccc(C(=O)O)n1 [pyridine-2,6-dicarboxylic acid]
Settings	molar heat capacity at constant pressure [J/K/mol]
84.05 K	56.42
86.4 K	56.44
88.71 K	56.5
90.97 K	56.59
93.19 K	56.71
95.37 K	56.85
97.51 K	57.03
99.63 K	57.23
101.72 K	57.46
103.77 K	57.71
105.81 K	57.98
107.81 K	58.27
109.8 K	58.59
111.76 K	58.92
113.7 K	59.27
115.63 K	59.65
117.53 K	60.03
119.42 K	60.44
121.29 K	60.86
123.15 K	61.3
124.99 K	61.76
126.82 K	62.23
128.63 K	62.72
130.43 K	63.22
132.22 K	63.73
133.99 K	64.25
135.76 K	64.8
137.51 K	65.35
139.25 K	65.91
140.98 K	66.49
142.69 K	67.08
144.4 K	67.68
146.1 K	68.29
147.79 K	68.91
149.46 K	69.55
151.13 K	70.19
152.79 K	70.84
154.44 K	71.5
156.08 K	72.18
157.72 K	72.86
159.35 K	73.55
160.97 K	74.25
162.58 K	74.96
164.18 K	75.68
165.77 K	76.4
167.35 K	77.13
168.92 K	77.86
170.49 K	78.61
172.04 K	79.36
173.59 K	80.11
175.13 K	80.88
176.66 K	81.65
178.19 K	82.42
179.71 K	83.2
181.22 K	83.99
182.72 K	84.78
184.23 K	85.59
185.73 K	86.39
187.22 K	87.21
188.71 K	88.03
190.19 K	88.85
191.66 K	89.68
193.13 K	90.52
194.59 K	91.35
196.06 K	92.2
197.5 K	93.04
200.08 K	94.57
204.09 K	96.99
207.23 K	98.92
209.37 K	100.26
211.49 K	101.59
213.62 K	102.95
217.8 K	105.66
219.85 K	107.01
221.9 K	108.37
223.94 K	109.74
225.95 K	111.1
227.91 K	112.43
229.9 K	113.8
231.78 K	115.1
233.73 K	116.46
235.64 K	117.81
237.61 K	119.2
239.52 K	120.56
241.4 K	121.91
243.27 K	123.26
245.17 K	124.63
247.09 K	126.04
248.98 K	127.43
250.89 K	128.84
252.77 K	130.24
254.65 K	131.65
256.51 K	133.04
258.38 K	134.45
260.23 K	135.86
262.08 K	137.27
263.92 K	138.68
265.74 K	140.08
267.58 K	141.5
269.4 K	142.91
271.2 K	144.31
273 K	145.72
274.79 K	147.12
276.55 K	148.51
278.32 K	149.91
280.09 K	151.31
281.85 K	152.71
283.59 K	154.09
285.32 K	155.48
287.04 K	156.85
288.74 K	158.22
290.44 K	159.59
292.1 K	160.93
293.75 K	162.27
295.39 K	163.6
297.06 K	164.95
298.72 K	166.31
300.37 K	167.65
302.01 K	168.99
303.64 K	170.32
305.27 K	171.65
306.88 K	172.98
310.09 K	175.62
311.68 K	176.93
313.25 K	178.21
314.76 K	179.47
316.65 K	181.03
319.26 K	183.18
322.04 K	185.48
324.78 K	187.75
327.48 K	189.98
330.16 K	192.2
332.81 K	194.4
335.45 K	196.59
338.09 K	198.77
340.74 K	200.97
343.44 K	203.2
346.14 K	205.43
348.74 K	207.58
351.31 K	209.7
353.85 K	211.78
356.38 K	213.86
358.86 K	215.9
361.34 K	217.92
363.79 K	219.91
366.21 K	221.88
368.6 K	223.82
370.97 K	225.73
375.64 K	229.5
378 K	231.38
